Results taken from patent US10172830B2, “Pyrazolone compounds having human neutrophil elastase inhibitory properties” (CHIESI FARMACEUTICI S.P.A., priority 2016, dated 2019).

Target: T1, human neutrophil elastase (HNE) (Homo sapiens, UniProt P08246)
T1 construct: purchased Sigma E8140
T1 sequence (P08246 30-247 limits assumed): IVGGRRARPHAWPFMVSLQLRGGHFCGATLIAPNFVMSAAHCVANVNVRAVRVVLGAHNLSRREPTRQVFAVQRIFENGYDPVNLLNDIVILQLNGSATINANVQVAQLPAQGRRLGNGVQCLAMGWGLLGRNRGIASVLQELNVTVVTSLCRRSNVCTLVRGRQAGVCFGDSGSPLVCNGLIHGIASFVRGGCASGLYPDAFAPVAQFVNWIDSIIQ
Assay: HNE enzyme assay (human neutrophil elastase enzyme activity assay)
Type: biochemical
Conditions: human leukocyte elastase 0.00072 U/mL; substrate MeOSuc-Ala-Ala-Pro-Val-AMC 100 μM; 25° C. for 30 minutes; at least two separate experiments; read-out: HNE inhibition (HNE enzyme inhibition, IC50 values)
Procedure, shortened: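 Human leukocyte elastase (0.00072 U/mL) with 100 μM MeOSuc-AAPV-AMC in Tris/NaCl/CaCl2/Brij-35 buffer, pH 7.5, 1% DMSO, 30 min at 25 °C; stopped with soybean trypsin inhibitor. AMC fluorescence (380/460 nm) as % inhibition of control; IC50 from dose-response curves, ≥2 experiments.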

| Structure (SMILES) | IC50 [nM] |
| --- | --- |
| CCOC(=O)c1c(-c2ccnn2-c2ccc(C#N)cc2)n(CC)n(-c2cccc(C(F)(F)F)c2)c1=O [Example 71, 2′-(4-Cyano-phenyl)-2-ethyl-5-oxo-1-(3-trifluoromethyl-phenyl)-2,5-dihydro-1H,2′H-[3,3′]bipyrazolyl-4-carboxylic acid ethyl ester] | < 1 |
| Cn1c(-c2nccn2-c2ccc(C#N)cc2)c(C(=O)NC2CCCC2)c(=O)n1-c1cccc(C(F)(F)F)c1 [Example 72, 5-[1-(4-Cyano-phenyl)-1H-imidazol-2-yl]-1-methyl-3-oxo-2-(3-trifluoromethyl-phenyl)-2,3-dihydro-1H-pyrazole-4-carboxylic acid cyclopentyl-amide] | < 1 |

More lines, now with the values ahead:

| IC50 [nM] | Structure (SMILES) |
| --- | --- |
| < 1 | Cn1c(-c2ccnn2-c2ccc(C#N)cc2)c(C(=O)N[C@H]2C[C@H](c3ncc(C[N+](C)(C)C)o3)C2)c(=O)n1-c1cccc(C(F)(F)F)c1 [Example 68, [2-(Trans-3-{[2′-(4-cyano-phenyl)-2-methyl-5-oxo-1-(3-trifluoromethyl-phenyl)-2,5-dihydro-1H,2′H-[3,3′]bipyrazolyl-4-carbonyl]-amino}-cyclobutyl)-oxazol-5-ylmethyl]-trimethyl-ammonium benzene sulphonate] |
| < 1 | Cn1c(-c2ccnn2-c2ccc(C#N)cc2)c(C(=O)N[C@H]2CC[C@H](C[n+]3ccccc3)CC2)c(=O)n1-c1cccc(C(F)(F)F)c1 [Example 69, 1-(4-{[2′-(4-Cyano-phenyl)-2-methyl-5-oxo-1-(3-trifluoromethyl-phenyl)-2,5-dihydro-1H,2′H-[3,3′]bipyrazolyl-4-carbonyl]-amino}-cyclohexylmethyl)-pyridinium bromide] |
| < 1 | Cn1cc[n+](C[C@H]2CC[C@H](NC(=O)c3c(-c4ccnn4-c4ccc(C#N)cc4)n(C)n(-c4cccc(C(F)(F)F)c4)c3=O)CC2)c1 [Example 70, 1-(4-{[2′-(4-Cyano-phenyl)-2-methyl-5-oxo-1-(3-trifluoromethyl-phenyl)-2,5-dihydro-1H,2′H-[3,3′]bipyrazolyl-4-carbonyl]-amino}-cyclohexylmethyl)-3-methyl-3H-imidazol-1-ium bromide] |
